Biological target: PD-1/PD-L1 (Homo sapiens, UniProt Q9NZQ7)
Experiment: TR-FRET PD-1/PD-L1 binding inhibition at the molecular level (free proteins)
Settings: Tag1-PD-L1 and Tag2-PD-1 proteins, twelve concentrations from 200 nM, 2 hours at room temperature, read-out: FRET assay (IC50)
Protocol: In order to evaluate the inhibitory activity of the compounds synthesized according to the above Preparation Examples against PD-1/PD-L1 molecules in a free protein state,a TR-FRET (Time-Resolved Fluorescence Energy Transfer) experimetn was performed as described below.
Specifically, the compounds were prepared in a 96-well plate by serial dilution starting from 200 nM with 1/2 dilutions to obtain a total of twelve concentrations, and 2 µL of each compound solution was added to a 384-well plate. Thereafter, Tag1-PD-L1 protein and Tag2-PD-1 protein were each prepared at a 1x concentration, mixed at a ratio of 1:1, and 8 µL of the mixed solution was added to each well of the 384-well plate containing the compounds. Anti-Tag1 Eu Cryptate reagent and Anti-Tag2 XL665 antibody were each prepared at a 1* concentration, mixed at a ratio of 1:1, and 10 µL of the mixed solution was added to each well of the 384-well plate containing the compounds and proteins, followed by incubation at room temperature for 2 hours. Upon completion of the reaction, fluorescence signals at wavelengths of 620 nm and 665 nm were measured using a microplate reader.

Chain of PD-1/PD-L1 (Q9NZQ7 19-238 limits assumed): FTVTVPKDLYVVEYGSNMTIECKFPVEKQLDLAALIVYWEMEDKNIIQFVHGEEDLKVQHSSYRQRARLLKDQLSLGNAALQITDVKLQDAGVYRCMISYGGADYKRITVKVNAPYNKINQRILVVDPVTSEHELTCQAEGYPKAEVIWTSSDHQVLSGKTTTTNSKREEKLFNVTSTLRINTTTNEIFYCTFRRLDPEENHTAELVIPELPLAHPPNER

SMILES | IC50 [nM]
O=C(Nc1cccc(-c2cccc(Nc3nc(C(F)F)nc4cc(CN5CC[C@@H](O)C5)cnc34)c2Cl)c1Cl)c1cc2n(n1)CCC[C@@H]2N1CC(C(=O)O)C1 (stereo in doubt) [Compound 262, 1-((S)-2-((2,2'-dichloro-3'-((2-(difluoromethyl)-7-(((R)-3-hydroxypyrrolidin-1-yl)methyl)pyrido[3,2-d]pyrimidin-4-yl)amino)-[1,1'-biphenyl]-3-yl)carbamoyl)-4,5,6,7-tetrahydropyrazolo[1,5-a]pyridin-4-yl)azetidine-3-carboxylic acid] | 10 to 100
Cc1c(NC(=O)c2cc3n(n2)CCC[C@@H]3N2CCC(O)CC2)cccc1-c1cccc(Nc2nc(C(F)(F)F)nc3cccnc23)c1C (stereo in doubt) [Compound 286, (S)-N-(2,2'-dimethyl-3'-((2-(trifluoromethyl)pyrido[3,2-d]pyrimidin-4-yl)amino)-[1,1'-biphenyl]-3-yl)-4-(4-hydroxypiperidin-1-yl)-4,5,6,7-tetrahydropyrazolo[1,5-a]pyridine-2-carboxamide] | 10 to 100
O=C(Nc1cccc(-c2cccc(Nc3nc(C(F)F)nc4cccnc34)c2Cl)c1Cl)c1cc2n(n1)CCC[C@@H]2N1CCC(C(=O)O)CC1 (stereo in doubt) [Compound 290, (S)-1-(2-((2,2'-dichloro-3'-((2-(difluoromethyl)pyrido[3,2-d]pyrimidin-4-yl)amino)-[1,1'-biphenyl]-3-yl)carbamoyl)-4,5,6,7-tetrahydropyrazolo[1,5-a]pyridin-4-yl)piperidine-4-carboxylic acid] | 10 to 100
O=C(O)CN[C@H]1CCCn2nc(C(=O)Nc3cccc(-c4cccc(Nc5nc(C(F)F)nc6cc(CN7CC[C@@H](O)C7)cnc56)c4Cl)c3Cl)cc21 (stereo in doubt) [Compound 294, 2-(((S)-2-((2,2'-dichloro-3'-((2-(difluoromethyl)-7-(((R)-3-hydroxypyrrolidin-1-yl)methyl)pyrido[3,2-d]pyrimidin-4-yl)amino)-[1,1'-biphenyl]-3-yl)carbamoyl)-4,5,6,7-tetrahydropyrazolo[1,5-a]pyridin-4-yl)amino)acetic acid] | 10 to 100
CC(C)c1nc(Nc2cccc(-c3cccc(NC(=O)c4cc5n(n4)CCC[C@@H]5N4CCC(C(=O)O)CC4)c3Cl)c2Cl)c2ncccc2n1 (stereo in doubt) [Compound 298, (S)-1-(2-((2,2'-dichloro-3'-((2-isopropylpyrido[3,2-d]pyrimidin-4-yl)amino)-[1,1'-biphenyl]-3-yl)carbamoyl)-4,5,6,7-tetrahydropyrazolo[1,5-a]pyridin-4-yl)piperidine-4-carboxylic acid] | 10 to 100
CC(C)c1nc(Nc2cccc(-c3cccc(NC(=O)c4cc5n(n4)CCC[C@@H]5NC(C)(C)C(=O)O)c3Cl)c2Cl)c2ncccc2n1 (stereo in doubt) [Compound 300, (S)-2-((2-((2,2'-dichloro-3'-((2-isopropyl-pyrido[3,2-d]pyrimidin-4-yl)amino)-[1,1'-biphenyl]-3-yl)carbamoyl)-4,5,6,7-tetrahydropyrazolo[1,5-a]pyridin-4-yl)amino)-2-methylpropanoic acid] | 10 to 100
O=C(Nc1cccc(-c2cccc(Nc3nc(C(F)F)nc4cccnc34)c2Cl)c1Cl)c1cc2n(n1)CCC[C@@H]2N1CCC(O)CC1 (stereo in doubt) [Compound 306, (S)-N-(2,2'-dichloro-3'-((2-(difluoromethyl)pyrido[3,2-d]pyrimidin-4-yl)amino)-[1,1'-biphenyl]-3-yl)-4-(4-hydroxypiperidin-1-yl)-4,5,6,7-tetrahydropyrazolo[1,5-a]pyridine-2-carboxamide] | 10 to 100
Cc1c(NC(=O)c2cc3n(n2)CCC[C@H]3N2CCC(C(=O)O)CC2)cccc1-c1cccc(Nc2nc(C(F)(F)F)nc3cc(CN4CC[C@@H](O)C4)cnc23)c1C (stereo in doubt) [Compound 343, 1-((R)-2-((3'-((7-(((R)-3-hydroxypyrrolidin-1-yl)methyl)-2-(trifluoromethyl)pyrido[3,2-d]pyrimidin-4-yl)amino)-2,2'-dimethyl-[1,1'-biphenyl]-3-yl)carbamoyl)-4,5,6,7-tetrahydropyrazolo[1,5-a]pyridin-4-yl)piperidine-4-carboxylic acid] | 10 to 100
Cc1c(NC(=O)c2cc3n(n2)CCCC3=O)cccc1-c1cccc(NC(=O)c2cc3n(n2)CCCC3=O)c1C [Compound 1, N,N'-(2,2'-dimethyl-[1,1'-biphenyl]-3,3'-diyl)bis(4-oxo-4,5,6,7-tetrahydropyrazolo[1,5-a]pyridine-2-carboxamide)] | < 10
Cc1c(NC(=O)c2cc3n(n2)CCCC3=O)cccc1-c1cccc(NC(=O)c2cc3n(n2)CCCC3O)c1C (centres unmarked) [Compound 2, N-(2,2'-dimethyl-3'-(4-oxo-4,5,6,7-tetrahydropyrazolo[1,5-a]pyridine-2-carboxamido)-[1,1'-biphenyl]-3-yl)-4-hydroxy-4,5,6,7-tetrahydropyrazolo[1,5-a]pyridine-2-carboxamide] | < 10
Cc1c(NC(=O)c2cc3n(n2)CCCC3O)cccc1-c1cccc(NC(=O)c2cc3n(n2)CCCC3O)c1C (centres unmarked) [Compound 2-1, N,N'-(2,2'-dimethyl-[1,1'-biphenyl]-3,3'-diyl)bis(4-hydroxy-4,5,6,7-tetrahydropyrazolo[1,5-a]pyridine-2-carboxamide)] | < 10
Cc1c(NC(=O)c2cc3n(n2)CCCC3=O)cccc1-c1cccc(NC(=O)c2cc3n(n2)CCCC3NCCO)c1C (centres unmarked) [Compound 3, N-(2,2'-dimethyl-3'-(4-oxo-4,5,6,7-tetrahydropyrazolo[1,5-a]pyridine-2-carboxamido)-[1,1'-biphenyl]-3-yl)-4-((2-hydroxyethyl)amino)-4,5,6,7-tetrahydropyrazolo[1,5-a]pyridine-2-carboxamide] | < 10
Cc1c(NC(=O)c2cc3n(n2)CCCC3O)cccc1-c1cccc(NC(=O)c2cc3n(n2)CCCC3NCCO)c1C (centres unmarked) [Compound 3-1, 4-hydroxy-N-(3'-(4-((2-hydroxyethyl)amino)-4,5,6,7-tetrahydropyrazolo[1,5-a]pyridine-2-carboxamido)-2,2'-dimethyl-[1,1'-biphenyl]-3-yl)-4,5,6,7-tetrahydropyrazolo[1,5-a]pyridine-2-carboxamide] | < 10
CC(=O)NCCNC1CCCn2nc(C(=O)Nc3cccc(-c4cccc(NC(=O)c5cc6n(n5)CCCC6NCCNC(C)=O)c4C)c3C)cc21 (centres unmarked) [Compound 5, N,N'-(2,2'-dimethyl-[1,1'-biphenyl]-3,3'-diyl)bis(4-((2-acetamidoethyl)amino)-4,5,6,7-tetrahydropyrazolo[1,5-a]pyridine-2-carboxamide)] | < 10
Cc1c(NC(=O)c2cc3n(n2)CCCC3NCCO)cccc1-c1cccc(NC(=O)c2cc3n(n2)CCCC3NCCO)c1C (centres unmarked) [Compound 6, N,N'-(2,2'-dimethyl-[1,1'-biphenyl]-3,3'-diyl)bis(4-((2-hydroxyethyl)amino)-4,5,6,7-tetrahydropyrazolo[1,5-a]pyridine-2-carboxamide)] | < 10
O=C(O)CNC1CCCn2nc(C(=O)Nc3cccc(-c4cccc(NC(=O)c5cc6n(n5)CCCC6NCC(=O)O)c4Cl)c3Cl)cc21 (centres unmarked) [Compound 8, 2-[[2-[[3-[3-[[4-(carboxymethylamino)-4,5,6,7-tetrahydropyrazolo[1,5-a]pyridine-2-carbonyl]amino]-2-chlorophenyl]-2-chlorophenyl]carbamoyl]-4,5,6,7-tetrahydropyrazolo[1,5-a]pyridin-4-yl]amino]acetic acid] | < 10
Cc1c(NC(=O)c2cc3n(n2)CCCC3O)cccc1-c1cccc(Nc2nccc3cc(CN4CC[C@@H](O)C4)cnc23)c1C (stereo partly drawn) [Compound 11, 4-hydroxy-N-(3'-((3-(((R)-3-hydroxypyrrolidin-1-yl)methyl)-1,7-naphthyridin-8-yl)amino)-2,2'-dimethyl-[1,1'-biphenyl]-3-yl)-4,5,6,7-tetrahydropyrazolo[1,5-a]pyridine-2-carboxamide] | < 10
CC(=O)NCCNC1CCCn2nc(C(=O)Nc3cccc(-c4cccc(Nc5nccc6cc(CN7CC[C@@H](O)C7)cnc56)c4C)c3C)cc21 (stereo partly drawn) [Compound 12, 4-((2-acetamidoethyl)amino)-N-(3'-((3-(((R)-3-hydroxypyrrolidin-1-yl)methyl)-1,7-naphthyridin-8-yl)amino)-2,2'-dimethyl-[1,1'-biphenyl]-3-yl)-4,5,6,7-tetrahydropyrazolo[1,5-a]pyridine-2-carboxamide] | < 10
Cc1c(NC(=O)c2cc3n(n2)CCCC3N2CC[C@@H](O)C2)cccc1-c1cccc(Nc2nccc3cc(CN4CC[C@@H](O)C4)cnc23)c1C (stereo partly drawn) [Compound 13, 4-((R)-3-hydroxypyrrolidin-1-yl)-N-(3'-((3-(((R)-3-hydroxypyrrolidin-1-yl)methyl)-1,7-naphthyridin-8-yl)amino)-2,2'-dimethyl-[1,1'-biphenyl]-3-yl)-4,5,6,7-tetrahydropyrazolo[1,5-a]pyridine-2-carboxamide] | < 10
Cc1c(NC(=O)c2cc3n(n2)CCCC3NCCO)cccc1-c1cccc(Nc2nccc3cc(CN4CC[C@@H](O)C4)cnc23)c1C (stereo partly drawn) [Compound 14, 4-((2-hydroxyethyl)amino)-N-(3'-((3-(((R)-3-hydroxypyrrolidin-1-yl)methyl)-1,7-naphthyridin-8-yl)amino)-2,2'-dimethyl-[1,1'-biphenyl]-3-yl)-4,5,6,7-tetrahydropyrazolo[1,5-a]pyridine-2-carboxamide] | < 10

Source: patent EP4755888A1 (ILAb Co., Ltd., priority 2023, dated 2025)
